ChEMBL document CHEMBL4480388, “Rad51/BRCA2 disruptors inhibit homologous recombination and synergize with olaparib in pancreatic cancer cells” (Eur J Med Chem, 2019)
Calls of active or inactive are those of the source. The calls are words filed in the database; no cut-off is given here.

Key:
[1] = target: T1, DNA repair protein RAD51 homolog 1 (Homo sapiens, UniProt Q06609); test: Displacement of N-terminal biotinylated-BRC4 from recombinant human Rad51 expressed in Escherichia coli by ELISA
T1 sequence (Q06609 whole entry): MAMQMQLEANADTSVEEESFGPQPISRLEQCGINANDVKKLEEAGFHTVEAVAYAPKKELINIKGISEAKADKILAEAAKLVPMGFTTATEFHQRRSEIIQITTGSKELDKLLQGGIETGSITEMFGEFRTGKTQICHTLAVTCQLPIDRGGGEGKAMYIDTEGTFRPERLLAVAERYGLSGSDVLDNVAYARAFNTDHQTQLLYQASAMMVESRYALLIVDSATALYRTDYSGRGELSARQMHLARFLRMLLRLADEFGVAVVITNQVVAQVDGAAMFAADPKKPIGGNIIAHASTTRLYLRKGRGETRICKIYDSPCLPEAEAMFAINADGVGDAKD

BXPC-3 [2] = test: Induction of DNA damage in human BxPC3 cells assessed as increase in gammaH2AX phosphorylation level at 20 uM measured after 144 hrs in presence of PARP inhibitor olaparib by Western blotting analysis relative to control; format: functional
BXPC-3 [3] = test: Induction of apoptosis in human BxPC3 cells assessed as caspase-3 activation at 20 uM measured after 144 hrs by Western blotting analysis; format: functional, cell-based
CAPAN-1 [4] = test: Synergistic cytotoxicity against human Capan1 cells assessed as reduction in cell viability at 20 uM measured after 72 hrs in presence of PARP inhibitor olaparib by crystal violet staining based assay; format: functional
BXPC-3 [5] = test: Induction of apoptosis in human BxPC3 cells assessed as increase in PUMA level at 20 uM measured after 144 hrs by Western blotting analysis; format: functional, cell-based
BXPC-3 [6] = test: Synergistic cytotoxicity against human BxPC3 cells assessed as combination index at 20 uM measured after 144 hrs in presence of PARP inhibitor olaparib by CellTox green dye based fluorescence assay; format: functional
BXPC-3 [7] = test: Induction of DNA damage in human BxPC3 cells assessed as increase in gammaH2AX phosphorylation level at 20 uM measured after 144 hrs by Western blotting analysis; format: functional, cell-based
BXPC-3 [8] = test: Synergistic cytotoxicity against human BxPC3 cells assessed as reduction in cell viability measured after 72 hrs in presence of PARP inhibitor olaparib by crystal violet staining based assay; format: functional
BXPC-3 [9] = test: Induction of apoptosis in human BxPC3 cells assessed as increase in BAX level at 20 uM measured after 144 hrs by Western blotting analysis; format: functional, cell-based
BXPC-3 [10] = test: Synergistic cytotoxicity against human BxPC3 cells assessed as reduction in cell viability at 20 uM measured after 72 hrs in presence of PARP inhibitor olaparib by crystal violet staining based assay; format: functional
[11] = target: T2, DNA repair protein RAD51 homolog 1 (Homo sapiens) (UniProt Q06609); test: Binding affinity to Rad51 in human BxPC3 cells assessed as reduction in protein-mediated homologous recombination at 20 uM measured after 16 hrs by reporter gene based PCR analysis relative to control; format: cell-based; design: scale not given: the % may be the effect or the level left
T2 sequence (whole entry): T1 sequence (Q06609 whole entry)

BXPC-3 [12] = test: Synergistic cytotoxicity against human BxPC3 cells assessed as reduction in cell viability at 20 uM measured after 144 hrs in presence of PARP inhibitor olaparib by CellTox green dye based fluorescence assay; format: functional
CAPAN-1 [13] = test: Effect on homologous recombination in human Capan1 cells at 10 to 20 uM measured after 16 hrs by reporter gene based PCR analysis; format: functional, cell-based
BXPC-3 [14] = test: Synergistic cytotoxicity against human BxPC3 cells assessed as reduction in cell viability at 40 uM measured after 72 hrs in presence of PARP inhibitor olaparib by crystal violet staining based assay; format: functional
[15] = target: T2, DNA repair protein RAD51 homolog 1 (Homo sapiens); test: Binding affinity to Rad51 in human BxPC3 cells assessed as reduction in protein-mediated homologous recombination at 40 uM measured after 16 hrs by reporter gene based PCR analysis relative to control; format: cell-based; design: scale not given: the % may be the effect or the level left
CAPAN-1 [16] = test: Synergistic cytotoxicity against human Capan1 cells assessed as reduction in cell viability at 40 uM measured after 72 hrs in presence of PARP inhibitor olaparib by crystal violet staining based assay; format: functional
CAPAN-1 [17] = test: Effect on homologous recombination in human Capan1 cells at 20 to 40 uM measured after 16 hrs by reporter gene based PCR analysis; format: functional, cell-based
[18] = target: T2, DNA repair protein RAD51 homolog 1 (Homo sapiens); test: Binding affinity to Rad51 in human BxPC3 cells assessed as reduction in protein-mediated homologous recombination at 5 to 30 uM measured after 16 hrs by reporter gene based PCR analysis; format: cell-based
[19] = Solubility of the compound in RPMI 1640 medium; format: physicochemical

Row | Structure (SMILES) | EC50 [1] | further results
1 | O=C(CSc1nnc(CNc2ccccc2)n1CCc1ccccc1)NC1CCCC1 | Not Active | 
2 | Cc1nnc(SCC(=O)NC2CCCC2)n1CCc1ccccc1 | Not Active | 
3 | O=C(CSc1nnc(CN2CCSC2=O)n1CCCc1ccccc1)NC1CCCC1 | Not Active | 
4 | O=C(CSc1nnc(Cn2c(=O)sc3ccccc32)n1CCc1ccccc1)NCc1ccc(F)cc1 | Not Active | 
5 | O=C(CSc1nnc(Cn2c(=O)sc3ccccc32)n1CCCc1ccncc1)NC1CCCC1 | Not Active | 
6 | O=C(CSc1nnc(Cn2c(=O)oc3ccccc32)n1CCCc1ccccc1)NC1CCCC1 |  | EC50 ([1]; read-out: EC50): 90 µM
7 | O=C(CSc1nnc(Cn2c(=O)sc3ccccc32)n1CCc1ccccc1)NC1CCCC1 |  | EC50 ([1]; read-out: EC50): 53 µM
8 | O=C(CSc1nnc(Cn2c(=O)sc3ccccc32)n1CCc1ccccc1)Nc1ccccc1 |  | EC50 ([1]; read-out: EC50): 95 µM
9 | Cl.NCc1ccc(-c2nnc(SCC(=O)NC3CCCC3)n2CCc2ccccc2)cc1 | Not Active | 
10 | CN1CCC(NC(=O)CSc2nnc(Cn3c(=O)sc4ccccc43)n2CCCc2ccccc2)CC1 | Not Active | 
11 | O=C(CSc1nnc(Cn2c(=O)[nH]c3ccccc32)n1CCCc1ccccc1)NC1CCCC1 | Not Active | 
12 | Cc1ccccc1CCn1c(Cn2c(=O)sc3ccccc32)nnc1SCC(=O)NC1CCCC1 |  | EC50 ([1]; read-out: EC50): 100 µM
13 | O=C(CSc1nnc(Cn2c(=O)sc3ccccc32)n1CCCc1cccnc1)NC1CCCC1 | Not Active | 
14 | Cc1ccc(C#N)c(=O)n1Cc1nnc(SCC(=O)NC2CCCC2)n1CCCc1ccccc1 | Not Active | 
15 | O=C(CSc1nnc(Cn2c(=O)sc3ccccc32)n1CCCc1ccccc1)NC1CCCCC1 |  | Activity (BXPC-3 [2]): >70%; Activity (BXPC-3 [3]): inactive; Activity (CAPAN-1 [4]): inactive; Activity (BXPC-3 [5]): inactive; CI (BXPC-3 [6]): 0.76; Activity (BXPC-3 [7]): inactive; Activity (BXPC-3 [8]): Dose-dependent effect; Activity (BXPC-3 [9]): inactive; Activity (BXPC-3 [10]): Active; Activity [11]: 40%; Activity (BXPC-3 [12]): Active; EC50 ([1]; read-out: EC50): 8 µM; Activity (CAPAN-1 [13]): inactive
16 | O=C(CSc1nnc(Cn2c(=O)sc3ccccc32)n1CCCc1ccccc1)Nc1ccccc1 | Not Active | 

Row | Structure (SMILES) | EC50 [1] | further results
17 | O=C(CSc1nnc(Cn2c(=O)sc3ccccc32)n1CCCc1ccccc1)NC1CC1 |  | Activity (BXPC-3 [14]): inactive; Activity [15]: 24%; Activity (CAPAN-1 [16]): inactive; EC50 ([1]; read-out: EC50): 24 µM; Activity (CAPAN-1 [17]): inactive
18 | O=C(CSc1nnc(Cn2c(=O)sc3ccccc32)n1CCCc1ccccc1)C1CCCC1 | Not Active | 
19 | O=C(CSc1nnc(Cn2c(=O)sc3ccccc32)n1CCCc1ccccn1)NC1CCCC1 | Not Active | 
20 | O=c1sc2ccccc2n1Cc1nnc(S)n1CCc1ccccc1 | Not Active | 
21 | O=C(CSc1nnc(Cn2c(=O)sc3ccccc32)n1CCc1ccccc1)N1CCCC1 | Not Active | 
22 | O=C(CSc1nnc(Cn2c(=O)sc3ccccc32)n1CCCc1ccccc1)NC1CCCC1 |  | EC50 ([1]; read-out: EC50): 25 µM; Activity [18]: inactive
23 | O=C(CSc1nncn1CCc1ccccc1)NC1CCCC1 | Not Active | 
24 | O=C(CSc1nnc(Cn2c(=O)sc3ccccc32)n1CCc1ccccc1F)NC1CCCC1 | Not Active | 
25 | Cl.Nc1cccn(Cc2nnc(SCC(=O)NC3CCCC3)n2CCCc2ccccc2)c1=O | Not Active | 
26 | O=C(CSc1nnc(Cn2c(=O)sc3ccccc32)n1CCCc1ccccc1)NC1CCC1 |  | solubility [19]: Insoluble; EC50 ([1]; read-out: EC50): 42 µM
27 | O=C(CSc1nnc(Cn2c(=O)sc3ccccc32)n1CCCc1ccccc1)N1CCCCC1 | Not Active | 
28 | O=C(CSc1nnc(Cn2c(=O)sc3ccccc32)n1CCc1ccccc1)NCc1ccccc1 | Not Active | 
29 | O=C(CSc1nnc(Cn2c(=O)sc3ccccc32)n1CCc1ccccc1)N1CCOCC1 | Not Active | 
30 | O=C(CSc1nnc(Cn2ccsc2=O)n1CCCc1ccccc1)NC1CCCC1 | Not Active | 
31 | NC(=O)CSc1nnc(Cn2c(=O)sc3ccccc32)n1CCc1ccccc1 | Not Active | 

More lines, main results first:

Row | EC50 [1] | Structure (SMILES) | further results
32 | Not Active | O=C(CSc1nnc(Cn2c(=O)sc3ccc(F)cc32)n1CCc1ccccc1)NC1CCCC1 | 
33 | Not Active | O=C(CSc1nnc(Cn2c(=O)sc3ccc(O)cc32)n1CCc1ccccc1)NC1CCCC1 | 
34 | Not Active | O=C(CSc1nnc(Cn2c(=O)sc3ccccc32)n1CCc1cccc(F)c1)NC1CCCC1 | 
35 | Not Active | COc1ccc2sc(=O)n(Cc3nnc(SCC(=O)NC4CCCC4)n3CCc3ccccc3)c2c1 | 
36 | Not Active | O=C(CSc1nnc(Cn2c(=O)sc3ccccc32)n1CCc1cccc(O)c1)NC1CCCC1 | 
37 | Not Active | O=C(CSc1nnc(Cn2c(=O)sc3ccccc32)n1CCc1ccccc1)NC1CCCCC1 | 
38 | Not Active | O=C(CSc1nnc(Cn2c(=O)sc3ccccc32)n1CCc1ccccc1)NC1CC1 | 
39 | Not Active | Cc1cccc(CCn2c(Cn3c(=O)sc4ccccc43)nnc2SCC(=O)NC2CCCC2)c1 | 
40 | Not Active | O=C(CSc1nnc(Cn2c(=O)sc3ccccc32)n1CCc1ccc(F)cc1)NC1CCCC1 | 
41 | Not Active | O=C(CSc1nnc(Cn2c(=O)sc3ccccc32)n1CCc1ccccc1O)NC1CCCC1 | 
